How the values were obtained:
[1] = Growth inhibition of human KKU-M213 cells after 72 hrs by SRB assay; format: functional; details: KKU-M213, 72 h, read-out: ED50 (the source's name)
[2] = tested on: HT-29; assay: Growth inhibition of human HT-29 cells after 72 hrs by SRB assay; format: functional; details: HT-29, 72 h, read-out: ED50 (the source's name)
[3] = Growth inhibition of rat ASK cells after 72 hrs by SRB assay; format: functional; details: read-out: ED50 (the source's name)
[4] = tested on: MCF7; assay: Growth inhibition of human MCF7 cells after 72 hrs by SRB assay; format: functional; details: MCF7, 72 h, read-out: ED50 (the source's name)
[5] = tested on: KB; assay: Growth inhibition of human KB cells after 72 hrs by SRB assay; format: functional; details: read-out: ED50 (the source's name)
[6] = tested on: A549; assay: Growth inhibition of human A549 cells after 72 hrs by SRB assay; format: functional; details: A549, 72 h, read-out: ED50 (the source's name)
[7] = tested on: P388; assay: Growth inhibition of mouse P388 cells after 72 hrs by SRB assay; format: functional; details: P388, 72 h, read-out: ED50 (the source's name)
[8] = tested on: HuCC-A1; assay: Growth inhibition of human HuCCa1 cells after 72 hrs by SRB assay; format: functional; details: HuCC-A1, 72 h, read-out: ED50 (the source's name)
[9] = Growth inhibition of human KKU100 cells after 72 hrs by SRB assay; format: functional; details: KKU100, 72 h, read-out: ED50 (the source's name)
[10] = Growth inhibition of human HEK293 cells after 72 hrs by SRB assay; format: cell-based; details: read-out: ED50

Row | SMILES | EC50 [2] | EC50 [4] | EC50 [5] | EC50 [6] | EC50 [7] | EC50 [1] | EC50 [3] | EC50 [8] | EC50 [9] | GI50 at 72 h [10]
1 | C[C@]1(CO)[C@H]2CC[C@@]3(CO3)[C@@H](/C=C/C3=CCOC3=O)[C@]2(C)CC[C@H]1O | > 50 µM | > 50 µM | > 50 µM | > 50 µM | > 50 µM | > 50 µM | > 50 µM | > 50 µM | > 50 µM | > 50 µM
2 | C=C1CC[C@@H]2[C@](C)(COC(C)=O)[C@H](O)CC[C@@]2(C)[C@@H]1/C=C/C1=CCOC1=O | 45 µM | 31.1 µM | 25.7 µM | 32.8 µM | 27.7 µM | > 50 µM | > 50 µM | > 50 µM | 40.2 µM | 27.8 µM
3 | C=C1CC[C@@H]2[C@](C)(COC(C)=O)[C@H](OC(C)=O)CC[C@@]2(C)[C@@H]1/C=C/C1=CCOC1=O | 41.9 µM | 28.8 µM | 25.7 µM | 34 µM | 27.7 µM | 37.3 µM | 42.5 µM | 40.9 µM | > 50 µM | 25 µM
4 | C=C1CC[C@@H]2[C@](C)(CO)[C@H](O)CC[C@@]2(C)[C@@H]1/C=C/C1=CCOC1=O | 28.6 µM | 18.7 µM | 5.07 µM | 28.2 µM | 35 µM | > 50 µM | > 50 µM | 35.8 µM | 36.9 µM | 7.53 µM
5 | CC(=O)OC[C@@]1(C)[C@H]2CC[C@@]3(CO3)[C@@H](/C=C/C3=CCOC3=O)[C@]2(C)CC[C@H]1O | 48.9 µM | 43.5 µM | > 50 µM | 46.3 µM | 20 µM | 48.9 µM | > 50 µM | > 50 µM | > 50 µM | 38.1 µM
6 | CC(=O)O[C@@H]1CC[C@]2(C)[C@H](CC[C@@]3(CO3)[C@H]2/C=C/C2=CCOC2=O)[C@]1(C)CO[Si](C)(C)C(C)(C)C | 18.6 µM | 16.6 µM | 25.8 µM | 24.1 µM | 7.45 µM | 19.1 µM | 22.4 µM | 23.4 µM | 16.4 µM | 18.1 µM
7 | C=C1CC[C@@H]2[C@](C)(COC(c3ccccc3)(c3ccccc3)c3ccccc3)[C@H](OC(C)=O)CC[C@@]2(C)[C@@H]1/C=C/C1=CCOC1=O | 21.9 µM | 9.12 µM | 6.36 µM | 12 µM | 12.9 µM | 9.98 µM | 39.9 µM | 38.6 µM | > 50 µM | 7.02 µM
8 | C=C1CC[C@@H]2[C@](C)(CO[Si](c3ccccc3)(c3ccccc3)C(C)(C)C)[C@H](OC(C)=O)CC[C@@]2(C)[C@@H]1/C=C/C1=CCOC1=O | 32.5 µM | 7.77 µM | 5.15 µM | 9.47 µM | 14.5 µM | 16 µM | > 50 µM | 24.3 µM | > 50 µM | 5.57 µM
9 | CC(=O)OC[C@@]1(C)[C@H]2CC[C@@]3(CO3)[C@@H](/C=C/C3=CCOC3=O)[C@]2(C)CC[C@H]1OC(C)=O | > 50 µM | > 50 µM | > 50 µM | > 50 µM | > 50 µM | > 50 µM | > 50 µM | > 50 µM | > 50 µM | > 50 µM
10 | Cc1c2ccncc2c(C)c2c1[nH]c1ccccc12 [ELLIPTECINE] | 2.68 µM | 1.66 µM | 2.34 µM | 2.37 µM | 2.12 µM | 4.75 µM | 2.17 µM | 3.46 µM | 4.16 µM | 2.27 µM

Continued by falling EC50 [2], values first:

Row | EC50 [2] | EC50 [4] | EC50 [5] | EC50 [6] | EC50 [7] | SMILES | EC50 [1] | EC50 [3] | EC50 [8] | EC50 [9] | GI50 at 72 h [10]
11 | 17.9 µM | 7.07 µM | 7.17 µM | 22 µM | 12.1 µM | C=C1CC[C@@H]2[C@](C)(CO[Si](C(C)C)(C(C)C)C(C)C)[C@H](OC(C)=O)CC[C@@]2(C)[C@@H]1/C=C/C1=CCOC1=O | 12.6 µM | 29.4 µM | 10.2 µM | 4.1 µM | 8.28 µM
12 | 12.8 µM | 6.37 µM | 4.94 µM | 9.18 µM | 6.56 µM | C=C1CC[C@@H]2[C@](C)(CO[Si](C)(C)C(C)(C)C)[C@H](OC(C)=O)CC[C@@]2(C)[C@@H]1/C=C/C1=CCOC1=O | 12.1 µM | 16.2 µM | 16 µM | 14 µM | 6.36 µM
13 | 8.48 µM | 7.61 µM | 5.12 µM | 17.2 µM | 8.24 µM | C=C1CC[C@@H]2[C@](C)(CO[Si](C)(C)C(C)(C)C)[C@H](O)CC[C@@]2(C)[C@@H]1/C=C/C1=CCOC1=O | 27.4 µM | 9.61 µM | 18.2 µM | 3.09 µM | 6.61 µM
14 | 8.38 µM | 4.86 µM | 4.94 µM | 6.79 µM | 3.87 µM | C=C1CC[C@@H]2[C@](C)(COC(c3ccccc3)(c3ccccc3)c3ccccc3)[C@H](O)CC[C@@]2(C)[C@@H]1/C=C/C1=CCOC1=O | 5.42 µM | 7.45 µM | 7.78 µM | 36.2 µM | 4.68 µM
15 | 7.4 µM | 7.84 µM | 8.48 µM | 8.65 µM | 7.84 µM | CC(=O)O[C@@H]1CC[C@]2(C)[C@H](CC[C@@]3(CO3)[C@H]2/C=C/C2=CCOC2=O)[C@]1(C)CO[Si](C(C)C)(C(C)C)C(C)C | 7.22 µM | 15.7 µM | 8.92 µM | 17.5 µM | 7.39 µM
16 | 7.24 µM | 8.18 µM | 19.2 µM | 9.36 µM | 15.1 µM | CC(C)(C)[Si](C)(C)OC[C@@]1(C)[C@H]2CC[C@@]3(CO3)[C@@H](/C=C/C3=CCOC3=O)[C@]2(C)CC[C@H]1O | 8.57 µM | 19 µM | > 50 µM | 9.25 µM | 6.15 µM
17 | 7.14 µM | 5.46 µM | 4.7 µM | 7.95 µM | 5.96 µM | C=C1CC[C@@H]2[C@](C)(CO[Si](C(C)C)(C(C)C)C(C)C)[C@H](O)CC[C@@]2(C)[C@@H]1/C=C/C1=CCOC1=O | 7.06 µM | 7.35 µM | 6.72 µM | 18.2 µM | 5.28 µM
18 | 6.74 µM | 6.84 µM | 5.12 µM | 8.16 µM | 5.28 µM | CC(=O)O[C@@H]1CC[C@]2(C)[C@H](CC[C@@]3(CO3)[C@H]2/C=C/C2=CCOC2=O)[C@]1(C)COC(c1ccccc1)(c1ccccc1)c1ccccc1 | 10.2 µM | 8.29 µM | 9.74 µM | 14.1 µM | 5.99 µM
19 | 6.48 µM | 4.44 µM | 4.45 µM | 6.49 µM | 5.51 µM | C=C1CC[C@@H]2[C@](C)(CO[Si](c3ccccc3)(c3ccccc3)C(C)(C)C)[C@H](O)CC[C@@]2(C)[C@@H]1/C=C/C1=CCOC1=O | 5.07 µM | 7.72 µM | 5.53 µM | 14.7 µM | 4.4 µM
20 | 6.21 µM | 5.38 µM | 4.92 µM | 5.88 µM | 3.33 µM | C[C@]1(COC(c2ccccc2)(c2ccccc2)c2ccccc2)[C@H]2CC[C@@]3(CO3)[C@@H](/C=C/C3=CCOC3=O)[C@]2(C)CC[C@H]1O | 4.68 µM | 6.47 µM | 7.81 µM | 28.8 µM | 5.39 µM
21 | 5.22 µM | 6.38 µM | 5.19 µM | 8.31 µM | 5.25 µM | CC(=O)O[C@@H]1CC[C@]2(C)[C@H](CC[C@@]3(CO3)[C@H]2/C=C/C2=CCOC2=O)[C@]1(C)CO[Si](c1ccccc1)(c1ccccc1)C(C)(C)C | 5.13 µM | 8.96 µM | 8.08 µM | 4.5 µM | 6.01 µM
22 | 4.43 µM | 4.23 µM | 4.02 µM | 6.22 µM | 4.13 µM | CC(C)(C)[Si](OC[C@@]1(C)[C@H]2CC[C@@]3(CO3)[C@@H](/C=C/C3=CCOC3=O)[C@]2(C)CC[C@H]1O)(c1ccccc1)c1ccccc1 | 3.08 µM | 6.81 µM | 6.41 µM | 3.27 µM | 4.97 µM
23 | 2.28 µM | 4.98 µM | 4.59 µM | 6.58 µM | 3.86 µM | CC(C)[Si](OC[C@@]1(C)[C@H]2CC[C@@]3(CO3)[C@@H](/C=C/C3=CCOC3=O)[C@]2(C)CC[C@H]1O)(C(C)C)C(C)C | 3.37 µM | 6.6 µM | 7.35 µM | 2.93 µM | 4.04 µM
